One data set has as its system HUVEC. As to the kind of experiment: HUVEC MTT assay. The data set is classed as cell-based. As to conditions: for inhibition, growth curves treated vs control wells: at about 72 hours. As for the experimental part:
HUVEC MTT assays were performed for the selected thalidomide analogs of the present invention to determine a rough estimate of the efficacy of such compounds in the inhibition of angiogenesis. For the MTT assay, 1.0 to 2.5×10^3 cells per well were plated in 96-well plates in 0.1 ml medium, in triplicate. After 24 hours, the cells were exposed to treatment for 5 days. One plate was analyzed every 24 hours by the addition of 20 μL of 5 mg/ml MTT solution (available from Sigma of St. Louis, Mo.) in PBS, to each well for 4 hours. The MTT solution was aspirated and 170 μL DMSO was added to each well to dissolve the formazan crystals. The absorbance at 540 nm was measured using a Biokinetics plate reader (available from Bio-Tek Instruments of Winooski, Vt.). Triplicate wells were assayed for each condition. The assay protocol described herein stems from Kruger et al., a protein kinase C inhibitor, inhibits endothelial cell proliferation and angiogenic hypoxic response, Invasion and Metastasis, 18(4): 209-218 (incorporated herein by reference).
The following results for the selected compounds were determined measured utilizing growth curves comparing control wells to treated wells using the MTT assays.
(In general: Formazan colour is commonly taken as a measure of viable cells.)

For a further data set, the system named is rat aortic rings. As to the kind of experiment: Anti-angiogenic activity utilizing rat aortic rings. As to conditions: daily dosage of 100 μM, five-day treatment, image analysis vs DMSO control rings; for inhibition at 100 µM: Rattus norvegicus, 120 h, read-out: angiogenesis inhibition activity. It is filed as cell-based, rat (Sprague-Dawley). The source says: The efficacy of selected thalidomide analogs of the present invention was studied by five-day treatment of rat aortic rings (utilizing Sprague-Dawley rats available from Charles River Labs) with varied doses of the analogs. A DMSO control was utilized (FIG. 1). The results, determined using image analysis comparing control rings versus the treated rings (using NIM Image software), of the studies are as follows: […]

For a further data set, the system named is human saphenous veins. As to the kind of experiment: Anti-angiogenic activity utilizing human saphenous vein. It is filed as cell-based. The conditions noted are these: 336 h, daily dosages of 100 μM, 14 day treatment, image analysis, read-out: angiogenesis inhibition activity level. The method, then: The efficacy of 2-(1-hydroxymethyl-2,6-dioxo-piperidin-3-yl)-1,3-dihydro-2H-isoindole-1,3-dione (CPS11) was studied by 14 day treatment of human saphenous veins (obtained through an IRB-approved protocol, Surgery Brand NCI) with 100 μM doses of the analog. A CAI, carboxyamido-triazole, 12 μg/ml control was utilized.

A short description of the next data set: Toxicology screen. As to conditions: i.p., single dose.

Bounds are passed on as bounds.

Consider `O=C1NC(=O)C(N2C(=O)c3ccccc3C2=O)CC1O` (centres unmarked) [CPS3, 2-(5-hydroxy-2,6-dioxo-piperidin-3-yl)-1H-isoindole-1,3[2H]-dione], for which the melting point was 195 to 230 °C. Moreover, in the data set with HUVEC (10 μM), the “inhibition (cytostatic activity), growth curves treated vs control wells” value is listed as “No cytostatic activity”. For the same molecule, the “inhibition (cytostatic activity), growth curves treated vs control wells” value in the data set on HUVEC (100 μM) is on record as “No cytostatic activity”. For the same molecule, in the data set on rat aortic rings, the inhibition at 100 µM was roughly 50%.

On to `O=C1CCC(N2C(=O)c3ccccc3C2=O)C(=O)N1CO` (centres unmarked) [CPS11, 2-(1-hydroxymethyl-2,6-dioxo-piperidin-3-yl)-1,3-dihydro-2H-isoindole-1,3-dione], for which the “inhibition, growth curves treated vs control wells” value was “about 60%” in the data set on HUVEC (10 μM) and greater than 90% in the data set on HUVEC (100 μM). Moreover, the inhibition at 100 µM in the data set with rat aortic rings and in the data set on human saphenous veins was 90% throughout. In addition, the toxicology screen outcome in “Toxicology screen” (10 mg/kg) and in “Toxicology screen” (100 mg/kg) was “safe” each time. Besides, the sedation noted entry in the data set “Toxicology screen” (10 and 100 mg/kg) was “Some amount of sedation”.

Regarding `Cc1ccc(C)c2c1C(=O)N(c1ccc(F)cc1F)C2=O` [CPS42, 2-(2,4-difluorophenyl)-4,7-dimethyl-1H-isoindole-1,3(2H)-dione], the “inhibition (cytostatic activity), growth curves treated vs control wells” value in the data set with HUVEC (10 μM) is listed as “no such activity”. For the same molecule, in the data set on HUVEC (100 μM), the “inhibition (cytostatic activity), growth curves treated vs control wells” value is “about 44%”. Further, in the data set “Toxicology screen” (200 mg/kg), the sedation noted entry was “Slight sedation”, the “time after injection at which sedation was noted” value was no more than 15 min and the toxicology screen outcome was “safe”.

Consider `CCC1(N2C(=O)c3ccccc3C2=O)C(=O)NC(=O)N(C2CCCCC2)C1=O` (centres unmarked) [CPS44, 1-cyclohexyl-5-ethyl-5-phthalimidobarbituric acid], for which the “inhibition (cytostatic activity), growth curves treated vs control wells” value with HUVEC (10 μM) is “no such activity”; in the data set on HUVEC (100 μM), “about 50%”. Further, the angiogenesis inhibition activity entry in the data set on rat aortic rings is on record as “No inhibition of angiogenesis”.

Consider `CCC1(N2C(=O)c3c(F)c(F)c(F)c(F)c3C2=O)C(=O)NC(=O)N(c2ccccc2)C1=O` (centres unmarked) [CPS45, 5-ethyl-1-phenyl-5-(tetrafluorophthalimido)barbituric acid], for which the “inhibition (cytostatic activity), growth curves treated vs control wells” value with HUVEC (10 μM) is greater than 90%. For the same molecule, in the data set on HUVEC (100 μM), the “inhibition (cytostatic activity), growth curves treated vs control wells” value is listed as greater than 90%. Besides, the inhibition at 100 µM in the data set on rat aortic rings came to 90%. In “Toxicology screen” (200 mg/kg), the “time to death after treatment” value is no more than 2.5 h and the toxicology screen outcome is “lethal dose”.

For the molecule `O=C1c2c(F)c(F)c(F)c(F)c2C(=O)N1c1c[nH]c(=O)[nH]c1=O` [CPS48, 5-(tetrafluorophthalimido)pyrimidine-2,4(1H,3H)-dione], the “inhibition (cytostatic activity), growth curves treated vs control wells” value in the data set on HUVEC (10 μM) and in the data set on HUVEC (100 μM) was “about 85%” throughout. Further, the inhibition at 100 µM in the data set on rat aortic rings amounted to 90%.

Regarding `O=C1c2c(F)c(F)c(F)c(F)c2C(=O)N1c1ccc(F)cc1F` [CPS49, 2-(2,4-difluoro-phenyl)-4,5,6,7-tetrafluoro-1H-isoindole-1,3(2H)-dione], in the data set on HUVEC (10 μM), the “inhibition (cytostatic activity), growth curves treated vs control wells” value is listed as “no such activity”. Besides, the “inhibition (cytostatic activity), growth curves treated vs control wells” value in the data set on HUVEC (100 μM) is recorded as “about 90%”. Besides, the angiogenesis inhibition activity result with rat aortic rings is recorded as “extensive angiogenesis inhibition activity”. Besides, in the data set “Toxicology screen” (200 mg/kg), the “time to death after treatment” value is no more than 18 h and the toxicology screen outcome was “lethal dose”.

In general, inhibition refers to the drop in the measured response relative to a control, in per cent. The term melting point denotes the temperature, or range, at which the solid turns liquid.

Values taken from patent US8716315B2, “Analogs of thalidomide as potential angiogenesis inhibitors” (The United States of America as represented by the …, priority 2001, dated 2014).
